Each structure is given as a SMILES string.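 Five compound concentrations were applied to cells in 96-well plates for 48 hours; endpoints were derived by simple linear interpolation of the resulting dose-response curve. GI50 marks 50% less growth.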 Calls of active or inactive are those of the source. Rule as the data show it: active = GI50 up to about 1.1 µM and inactive = higher.

This is an account of results in ChEMBL document CHEMBL1201862, “PubChem BioAssay data set” (2004).

Some test systems named below: A549; ACHN; EKVX; HCT-116; HCT-15; HT-29; MCF7; MDA-MB-231; MDA-MB-435; NCI/ADR-RES; OVCAR-3; SK-OV-3; SN12C; SR; SW-620; UACC-257; UACC-62; Malme-3M; HL-60; LOX IMVI.
Holding throughout (test): growth of human tumour cells (NCI), 48 h

With `CN1C(=O)[C@@H]2N(CSC2(C)C)C1=S`, the GI50 with A549 is > 100 µM (inactive); with ACHN it was > 100 µM (inactive); with EKVX, > 100 µM (inactive); in the assay on HCT-116, > 100 µM (inactive); in the assay on HCT-15, over 100 µM; in the assay on HT-29 it was > 100 µM (inactive). Further, the GI50 with MCF7, in the assay with MDA-MB-231, with MDA-MB-435, in the assay on NCI/ADR-RES, with OVCAR-3 and in the assay with SK-OV-3 was > 100 µM (inactive) each time. In addition, the GI50 in the assay with SN12C, with SR, with SW-620, in the assay on UACC-257 and in the assay on UACC-62 was > 100 µM (inactive) in each case.
Consider `Cn1nnnc1SC(F)(F)c1nc2ccccc2o1`, for which the GI50 in the assay on A549 is > 100 µM (inactive); in the assay with ACHN it was > 100 µM (inactive); in the assay with HCT-116 it was > 100 µM (inactive); in the assay with HCT-15 it was over 100 µM; in the assay with HT-29, > 100 µM (inactive); in the assay with MCF7, > 100 µM (inactive). Moreover, the GI50 in the assay on MDA-MB-231, with MDA-MB-435, in the assay on Malme-3M, in the assay on NCI/ADR-RES, in the assay on OVCAR-3 and with SK-OV-3 was > 100 µM (inactive) each time. Moreover, the GI50 in the assay with SN12C, in the assay with SR, with SW-620, with UACC-257 and in the assay on UACC-62 was > 100 µM (inactive) in each case.
Consider `O=C(CC(C(=O)c1ccco1)c1ccco1)c1ccco1` (centres undefined), for which the GI50 in the assay on A549, with ACHN, in the assay on EKVX, in the assay on HCT-116, with HL-60 and in the assay on HT-29 was > 100 µM (inactive) in each case. Further, the GI50 with LOX IMVI is > 100 µM (inactive); in the assay with MCF7, > 100 µM (inactive); in the assay on MDA-MB-231 it was 78.9 µM (inactive); in the assay on MDA-MB-435 it was > 100 µM (inactive); in the assay with NCI/ADR-RES, > 100 µM (inactive); with OVCAR-3, > 100 µM (inactive). Besides, the GI50 in the assay on SK-OV-3, in the assay with SN12C, in the assay with SR, in the assay with SW-620, in the assay with UACC-257 and in the assay on UACC-62 was > 100 µM (inactive) each time.
Regarding `CCCC(=O)NC1=C(Cl)C(=O)c2ccccc2C1=O`, the GI50 is 4.39 µM (inactive) in the assay with A549; 1.73 µM (inactive) in the assay with ACHN; 3.72 µM (inactive) in the assay on EKVX; 1.73 µM (inactive) in the assay on HCT-116; 1.68 µM in the assay with HCT-15; 0.145 µM (active) with HL-60. Moreover, the GI50 with HT-29 was 8.49 µM (inactive); in the assay with LOX IMVI, 2.51 µM (inactive); in the assay with MCF7, 2.39 µM (inactive); with MDA-MB-231 it was 3.94 µM (inactive); in the assay with MDA-MB-435 it was 3.42 µM (inactive); with NCI/ADR-RES, 3.32 µM (inactive). Further, the GI50 in the assay with OVCAR-3 is 2.29 µM (inactive); with SK-OV-3 it was 8.67 µM (inactive); in the assay with SN12C it was 10.8 µM (inactive); with SR it was 1.83 µM (inactive); in the assay with SW-620, 1.79 µM (inactive); in the assay with UACC-257, 4.29 µM (inactive). Besides, the GI50 with UACC-62 is 2.32 µM (inactive).
Regarding `CCCCc1ccc(NC(=N)N)cc1`, the GI50 is 41.5 µM (inactive) in the assay with A549; 36.7 µM (inactive) in the assay on ACHN; 30 µM (inactive) in the assay with EKVX; 24.9 µM (inactive) with HCT-116; 33 µM in the assay on HCT-15; 34.1 µM (inactive) in the assay on HL-60. In addition, the GI50 in the assay with HT-29 was 25.8 µM (inactive); in the assay with LOX IMVI it was 40 µM (inactive); in the assay on MCF7, 19.7 µM (inactive); in the assay with MDA-MB-231 it was 28.9 µM (inactive); in the assay with MDA-MB-435, 40.1 µM (inactive); in the assay with Malme-3M, 38.8 µM (inactive). The GI50 was 29.9 µM (inactive) with NCI/ADR-RES; 24.5 µM (inactive) with OVCAR-3; 41.5 µM (inactive) with SK-OV-3; 40 µM (inactive) in the assay with SN12C; 44.5 µM (inactive) in the assay on SW-620; 33.7 µM (inactive) in the assay with UACC-257. In addition, the GI50 with UACC-62 is 37.3 µM (inactive).
Turning to `O/N=N/c1ccc(-c2ccccc2)cn1`, the GI50 was 21.7 µM (inactive) in the assay on A549; 2.86 µM (inactive) in the assay with ACHN; 7.5 µM (inactive) in the assay on EKVX; 9.08 µM (inactive) in the assay on HCT-116; 19.6 µM in the assay with HCT-15; 0.176 µM (active) in the assay on HL-60. For the same molecule, the GI50 was 20.6 µM (inactive) with HT-29; 6.21 µM (inactive) in the assay with LOX IMVI; 1.44 µM (inactive) with MCF7; 28.6 µM (inactive) in the assay on MDA-MB-231; 14.7 µM (inactive) in the assay on MDA-MB-435; 11.5 µM (inactive) in the assay on Malme-3M. Besides, the GI50 with NCI/ADR-RES was 8.77 µM (inactive); in the assay with OVCAR-3, 20.2 µM (inactive); in the assay with SK-OV-3, 20.3 µM (inactive); in the assay on SN12C, 10.8 µM (inactive); in the assay with SW-620 it was 10.7 µM (inactive); with UACC-257 it was 43.9 µM (inactive). In the assay with UACC-62, the GI50 was 7.64 µM (inactive).
On to `O=[N+]([O-])c1ccc2c(c1)Cc1cc(/N=C/c3ccc4c(c3)OCO4)ccc1-2`, for which the GI50 in the assay on A549 was > 100 µM (inactive); with ACHN, > 100 µM (inactive); in the assay with EKVX, 57.1 µM (inactive); with HCT-116, > 100 µM (inactive); in the assay on HCT-15, over 100 µM; in the assay on HL-60, > 100 µM (inactive). In addition, the GI50 with HT-29, with LOX IMVI, with MCF7, in the assay on MDA-MB-231, with MDA-MB-435 and with Malme-3M was > 100 µM (inactive) each time. The GI50 in the assay with NCI/ADR-RES, in the assay with OVCAR-3, with SK-OV-3, in the assay on SN12C, in the assay with SW-620 and in the assay on UACC-257 was > 100 µM (inactive) each time. Also, the GI50 in the assay with UACC-62 was > 100 µM (inactive).
Regarding `Nc1ccc(C(=O)N2CCC[C@H]2CO)c(N)c1`, the GI50 was > 100 µM (inactive) in the assay on A549; > 100 µM (inactive) in the assay on ACHN; > 100 µM (inactive) in the assay with EKVX; > 100 µM (inactive) in the assay on HCT-116; over 100 µM in the assay on HCT-15; > 100 µM (inactive) with HL-60. Moreover, the GI50 in the assay on HT-29, with LOX IMVI, in the assay on MCF7, in the assay on MDA-MB-231, with MDA-MB-435 and in the assay on NCI/ADR-RES was > 100 µM (inactive) in each case. For the same molecule, the GI50 in the assay with OVCAR-3, in the assay on SK-OV-3, with SN12C, with SR, in the assay with SW-620 and with UACC-257 was > 100 µM (inactive) each time. Moreover, the GI50 in the assay with UACC-62 is > 100 µM (inactive).
Consider `CCOC(=O)c1nc2ccc(C(F)(F)F)cc2nc1NCc1cc(OC)c(OC)c(OC)c1`, for which the GI50 in the assay with A549 was 73.3 µM (inactive); with ACHN it was 50.6 µM (inactive); with EKVX, 60.3 µM (inactive); in the assay on HCT-116, 30 µM (inactive); in the assay on HCT-15, 48.9 µM; with HL-60, 33 µM (inactive). Further, the GI50 with HT-29 is 59.6 µM (inactive); with LOX IMVI, 35.7 µM (inactive); in the assay with MCF7, 66.5 µM (inactive); in the assay with MDA-MB-231 it was 60 µM (inactive); in the assay with MDA-MB-435 it was 35.6 µM (inactive); with NCI/ADR-RES it was 94.8 µM (inactive). Further, the GI50 in the assay with OVCAR-3 was 55.5 µM (inactive); in the assay with SN12C, > 100 µM (inactive); in the assay on SR, 7.38 µM (inactive); in the assay with SW-620 it was 54.1 µM (inactive); in the assay on UACC-257, > 100 µM (inactive); in the assay with UACC-62 it was 53.5 µM (inactive).
In the case of `CC1=NN(c2nc(N)nc(-c3ccccc3S(N)(=O)=O)n2)C(C)(C)C1`, the GI50 in the assay on ACHN was 4.44 µM (inactive); in the assay on EKVX, 36.1 µM (inactive); with HCT-116 it was 10.2 µM (inactive); in the assay on HCT-15 it was 2.76 µM; with HL-60 it was 6.03 µM (inactive); in the assay with HT-29, 12.1 µM (inactive). In addition, the GI50 was 10.3 µM (inactive) in the assay with LOX IMVI; 22.7 µM (inactive) with MCF7; 22.2 µM (inactive) with MDA-MB-231; 37.8 µM (inactive) in the assay with MDA-MB-435; 9.33 µM (inactive) in the assay with NCI/ADR-RES; 16.3 µM (inactive) with OVCAR-3. The GI50 is 9.02 µM (inactive) in the assay on SK-OV-3, 5.85 µM (inactive) with SR, 25.8 µM (inactive) in the assay on SW-620 and 30.2 µM (inactive) with UACC-257.
In the case of `CC1CCOc2ccc(cc2)/C=N\c2ccc(cc2)-c2ccc(cc2)/N=C\c2ccc(cc2)OCC1`, the GI50 in the assay with A549 is > 100 µM (inactive); in the assay with ACHN, > 100 µM (inactive); in the assay on EKVX it was > 100 µM (inactive); in the assay on HCT-116, > 100 µM (inactive); in the assay on HCT-15, over 100 µM; in the assay with HL-60, > 100 µM (inactive). In addition, the GI50 in the assay with HT-29, in the assay on LOX IMVI, in the assay on MCF7, in the assay on MDA-MB-231, in the assay on MDA-MB-435 and in the assay with NCI/ADR-RES was > 100 µM (inactive) each time. Further, the GI50 in the assay on OVCAR-3, with SK-OV-3, in the assay on SN12C, with SR, with SW-620 and in the assay with UACC-257 was > 100 µM (inactive) in each case.
